PubChem BioAssay (NCI)
“And” between values parts separate entries of the source, which are not always exact repeats. Equal entries are not always repeated.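 Following 48 hours of exposure in 96-well plates, responses at five concentrations were used to interpolate endpoints linearly. GI50 = concentration required for 50% inhibition of growth. TGI denotes the concentration required for complete inhibition of growth.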

How the values were obtained:
Assay in all cases: inhibition of tumour cell growth, NCI panel, 48 h
786-0 renal = test system: 786-0 renal
CCRF-CEM leukemia = test system: CCRF-CEM leukemia
LOX IMVI melanoma = test system: LOX IMVI melanoma
MOLT-4 leukemia = test system: MOLT-4 leukemia
NCI-H460 lung = test system: NCI-H460 lung
OVCAR-3 ovarian = test system: OVCAR-3 ovarian
OVCAR-5 ovarian = test system: OVCAR-5 ovarian
DU-145 prostate = test system: DU-145 prostate
NCI/ADR-RES ovarian = test system: NCI/ADR-RES ovarian
SR leukemia = test system: SR leukemia

| Compound | TGI (786-0 renal) | TGI (CCRF-CEM leukemia) | TGI (LOX IMVI melanoma) | TGI (MOLT-4 leukemia) | TGI (NCI-H460 lung) | TGI (OVCAR-3 ovarian) | TGI (OVCAR-5 ovarian) | GI50 (786-0 renal) | GI50 (CCRF-CEM leukemia) | GI50 (DU-145 prostate) | TGI (DU-145 prostate) | GI50 (LOX IMVI melanoma) | GI50 (NCI-H460 lung) | GI50 (NCI/ADR-RES ovarian) | TGI (NCI/ADR-RES ovarian) | GI50 (OVCAR-3 ovarian) | GI50 (OVCAR-5 ovarian) | TGI (SR leukemia) | GI50 (MOLT-4 leukemia) | GI50 (SR leukemia) |
| --- | --- | --- | --- | --- | --- | --- | --- | --- | --- | --- | --- | --- | --- | --- | --- | --- | --- | --- | --- | --- |
| CN(C)CCNC(=O)c1cccc2ccc(-c3cccnc3)nc12 | > 100 µM | > 100 µM | 15.1 µM | > 100 µM | > 100 µM | 36.9 µM | 22.4 µM |  |  |  |  |  |  |  |  |  |  |  |  |  |
| O=c1c2[nH]c3ccccc3c2nc2n1CCS2 | > 100 µM | > 100 µM | > 100 µM |  | > 100 µM | > 100 µM | > 100 µM | > 100 µM | 0.598 µM | > 100000 nM | > 100 µM | 54.7 µM | > 100 µM | > 100 µM | > 100 µM | > 100 µM | > 100 µM |  |  |  |
| O=c1c2cc(Br)ccc2nc(-c2ccccc2)n1NCC1(O)OCC(O)C(O)C1O (stereo not given) | > 100 µM | > 100 µM | > 100 µM | > 100 µM | > 100 µM | > 100 µM | > 100 µM |  |  |  |  |  |  |  |  |  |  | > 100 µM |  |  |
| Cc1ccc(/C=N/NS(=O)(=O)c2ccccc2)cc1 | > 100 µM | > 100 µM | > 100 µM | > 100 µM | > 100 µM | > 100 µM | > 100 µM |  |  |  |  |  |  |  |  |  |  | > 100 µM |  |  |
| COc1cc[c]([Sb]([Br])([CH]=C(C)C)([CH]=C(C)C)[CH]=C(C)C)cc1 | > 100 µM | > 100 µM | > 100 µM | > 100 µM | 54.5 µM |  |  | 13.6 µM | 5.65 µM |  |  | 15.7 µM | 6.61 µM |  |  |  |  | > 100 µM | 10.6 µM | 4280 nM |
| CCN1CCC2(CC1)NC(=O)c1c(c3ccc(Cl)c(Cl)c3n1C)C2C#N (stereo not given) | 3.13 µM | 13.1 µM | 3.34 µM | 8.66 µM | 6.45 µM |  | 5.79 µM | 1.7 µM | 3 µM |  |  | 1.65 µM | 2.34 µM | 3.6 µM | 13.6 µM |  | 1.98 µM | 5.69 µM | 2.43 µM | 1760 nM |
| COc1ccc2c(c1)CC[C@@H]1[C@@H]2CC[C@]2(C)c3[nH]ncc3C[C@@H]12 | > 50 µM |  | 33.3 µM | 40.6 µM |  | 18.6 µM | > 50 µM | 18.2 µM |  | 20600 nM | > 50 µM | 10.8 µM |  | 15.8 µM | > 50 µM | 8.9 µM | 20.2 µM | 15.3 µM | 1.8 µM | 2140 nM |
| CC1(C(=O)NCCN(CCNC(=O)C2(C)CC3(C)CC(C)(C2)C(=O)NC3=O)CCNC(=O)C2(C)CC3(C)CC(C)(C2)C(=O)NC3=O)CC2(C)CC(C)(C1)C(=O)NC2=O (stereo not given) | > 100 µM | > 100 µM |  | > 100 µM | > 100 µM | > 100 µM |  |  |  |  |  |  |  |  |  |  |  | > 100 µM |  |  |
| NC1=NN(c2ccccc2)C(=O)C1/C(=N\NC(=O)c1cc2ccccc2cc1O)C(=O)Nc1nc([N+](=O)[O-])cs1 (stereo not given) | > 100 µM | 59.7 µM | 55.4 µM | 58.8 µM | 46.1 µM | 98.6 µM | > 100 µM |  |  |  |  |  |  |  |  |  |  | 58.3 µM |  |  |
| NCCn1ccc(NC(c2ccccc2)(c2ccccc2)c2ccccc2)nc1=O | 31.8 µM |  | 30.5 µM | 44.8 µM | 37.9 µM | 52.6 µM | > 100 µM |  |  |  |  |  |  |  |  |  |  | 46.2 µM |  |  |
| COC1=C(C)C(=O)C2=C(C1=O)C(CO)N1C(C#N)C3CC4C(C1C2N1CCOC41)N3C (stereo not given) | 1.31 µM and 1.55 µM |  |  |  |  | 0.168 µM and 0.0383 µM and < 0.02 µM | 1.09 µM and 0.587 µM and 1.98 µM | 0.00243 µM |  | 43.8 nM and 362 nM and 133 nM | 14 µM | 0.00204 µM |  |  | 0.45 µM and 0.182 µM |  |  |  |  | 1.59 nM and 5.38 nM |
| COc1nc2c(cc1S(=O)(=O)c1ccccc1)CCc1c-2cnn1Cc1ccccc1 | > 100 µM | > 100 µM | > 100 µM | > 100 µM | > 100 µM | > 100 µM | > 100 µM | 13.6 µM | 16.8 µM |  |  | > 100 µM | 7.06 µM | 9.84 µM | > 100 µM | 9.35 µM | > 100 µM |  | 5.48 µM |  |
| NC(=S)N/N=C1\C(=O)N(CCc2ccccc2)C(=O)C1C(=O)NCCc1ccccc1 (stereo not given) | > 100 µM |  | > 100 µM |  | > 100 µM | > 100 µM | > 100 µM |  |  |  |  |  |  |  |  |  |  |  |  |  |
| Cc1cc2c(=O)cc(-c3ccc(C(F)(F)F)cc3)oc2c(C(=O)O)c1C | > 100 µM | > 100 µM | > 100 µM | > 100 µM | > 100 µM | > 100 µM | > 100 µM |  |  |  |  |  |  |  |  |  |  |  |  |  |
| O=C(c1ccco1)c1ccccc1C(=O)c1ccco1 | > 100 µM | > 100 µM | > 100 µM | > 100 µM | > 100 µM | > 100 µM | > 100 µM |  |  |  |  |  |  |  |  |  |  | > 100 µM |  |  |
| COc1cccc2c1C(=O)c1c(O)c3c(c(O)c1C2=O)C[C@@](O)(C(=O)CO)C[C@@H]3OC1CC(OC(C)=O)C(OC(C)=O)C(C)O1 (stereo not given in full) | 1.41 µM | 0.764 µM | > 20 µM |  | 1.57 µM | 4.57 µM | 5 µM | 0.272 µM | 0.0435 µM | 120 nM | 0.719 µM | 0.284 µM | < 0.0239 µM | 0.552 µM |  | 0.965 µM | 1.16 µM |  | < 0.0282 µM |  |
| COc1ccc(N2CCN(CN3CCN(c4ccc(OC)cc4)C3)C2)cc1 | > 100 µM | > 100 µM | > 100 µM | 37.2 µM | > 100 µM | > 100 µM | > 100 µM | > 100 µM | 33.4 µM | 79700 nM | > 100 µM | 41.3 µM | > 100 µM | > 100 µM | > 100 µM | > 100 µM | > 100 µM |  | 12.3 µM |  |
| N.N.N.N.N.N#N.[Cl-].[Os+7] | > 100 µM |  | > 100 µM |  | > 100 µM | > 100 µM | > 100 µM | > 100 µM |  |  |  | > 100 µM | > 100 µM |  |  | > 100 µM | > 100 µM | > 100 µM |  | > 100000 nM |
